Series [1] deals with T1, PfIspD (Plasmodium falciparum, UniProt Q8I273).
T1 sequence (Q8I273 1-734): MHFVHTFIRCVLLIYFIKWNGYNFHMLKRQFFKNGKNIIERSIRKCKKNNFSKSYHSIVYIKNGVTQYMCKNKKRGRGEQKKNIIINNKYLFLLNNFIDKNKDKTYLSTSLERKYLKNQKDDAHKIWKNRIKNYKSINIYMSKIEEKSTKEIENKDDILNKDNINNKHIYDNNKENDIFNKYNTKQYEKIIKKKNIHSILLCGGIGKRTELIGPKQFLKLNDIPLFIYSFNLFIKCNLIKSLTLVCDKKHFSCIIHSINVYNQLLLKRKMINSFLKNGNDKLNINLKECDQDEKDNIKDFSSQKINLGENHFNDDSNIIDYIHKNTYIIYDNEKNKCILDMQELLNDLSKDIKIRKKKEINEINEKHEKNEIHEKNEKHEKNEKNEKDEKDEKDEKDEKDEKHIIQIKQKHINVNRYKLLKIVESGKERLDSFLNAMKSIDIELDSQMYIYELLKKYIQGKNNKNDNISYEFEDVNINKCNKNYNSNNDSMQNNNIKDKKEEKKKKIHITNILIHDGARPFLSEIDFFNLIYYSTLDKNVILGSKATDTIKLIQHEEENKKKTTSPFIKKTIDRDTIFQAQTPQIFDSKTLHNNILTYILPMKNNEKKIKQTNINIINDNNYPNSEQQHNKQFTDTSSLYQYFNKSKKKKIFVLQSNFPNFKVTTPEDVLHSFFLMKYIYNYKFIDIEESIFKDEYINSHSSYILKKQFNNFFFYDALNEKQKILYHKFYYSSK
Briefly: Photometric in vitro PfIspD assay. The conditions noted are these: mean ± SD, n ≥ 2; n.a. = absence of activity. The class given is biochemical. As for the experimental part: Dilution series (1:2) of inhibitors in DMSO covered the concentration range of approximately 200–0.01 μM. After finishing the dilution series, the final volume of compound solution in DMSO per well was 3 μL. For the IspD assay, 30 μL aliquots of a solution containing 100 mM Tris-HCl, pH 7.6, 0.02% NaN3, 1 mM MEP and 1 mM CTP were added to microplate wells preloaded with 3 μL of DMSO containing test compounds. […] Initial rates were estimated using Softmax Pro 6.1 software (Molecular Devices, Biberach an der Riss, Germany). IC50 values were determined with a nonlinear regression method using the program Dynafit.[21]

For the next series, the system named is IspD. Conditions: cited from earlier work.
The target of series [2] is T1, PfIspD. Briefly: Determination of enzyme kinetics, LC-MS based IspD assay. The class given is biochemical. The conditions noted are these: our results, n = 2, mean ± SD; read-out: Km^CTP. As for the experimental part:
(§1) A volume of 80 μL Buffer A containing 100 mM Tris-HCl pH 7.6, 1 mM DTT, 1 mM MgCl2, 50 nM PfIspD were added to well A1 96-well plate while 50 μL were added to the rest of the wells. A volume of 20 μL of 10 mM CTP was added to the first well, then a serial dilution was conducted by moving 50 μL. To start the reaction, we then added on buffer A 50 μL of Buffer B containing 100 mM Tris-HCl pH 7.6, 1 mM DTT, and 1 mM MEP. The assay plate was incubated at 37 °C for 40 min, after which, the protein was denaturated by heating up the plate to 95 °C for 5 min. The plate was then centrifuged at 4000 rpm at 4 °C for 5 min to precipitate the protein. […] Thereafter, 10 μL of each of the supernatants from the assay plate were added to the plate containing the mixture with our internal standard. The plate was centrifuged again at 4000 rpm at 4 °C for 5 min, after which, 50 μL of the supernatant was transferred to an LC-MS plate and closed with a silicon cover. LC-MS conditions and data analysis methods we used were described above. The peak area for each conditions were used to calculate the Michaelis–Menten kinetic parameters using Graphpad Prism v 9. Measurements were performed in duplicates, repeated at least two times from two to three independent experiments.

A further series concerns PfNF54. Briefly: Whole-cell assay, [3H]-hypoxanthine incorporation. The series is classed as cell-based, Plasmodium falciparum. The conditions noted are these: mean ± SD, n.a. = absence of activity. As for the experimental part:
After incubation for 48 h, 0.25 μCi of [^3H]-hypoxanthine was added per well and plates were incubated for an additional 24 h.

A further series concerns E. coli K12. Briefly: Growth inhibition of E. coli K12. The series is classed as cell-based. Conditions: Escherichia coli.
The target of another series is EcIspE (Escherichia coli, UniProt P62615). Briefly: Activity against auxiliary enzyme EcIspE. The series is classed as biochemical.
Another series has as its target PK-LDH. Put plainly: Activity against auxiliary enzymes PK-LDH. The class given is biochemical.
Series [3] has as its system Pf3D7 (WT) and MMV008138 resistant parasites (R2 and R3). Put plainly: IDP rescue assay. The class given is cell-based, Plasmodium falciparum. The conditions noted are these: 200 μM IDP, 72 h. As to the method: The parasite growth was quantified by measuring DNA content using PicoGreen assay (Invitrogen). IC50 values were calculated by nonlinear regression analysis using GraphPad Prism software and reflect the mean ± standard error of the mean (SEM) from at least three independent experiments. Statistical comparison of the values was done via one-way ANOVA.

Series [4] has as its system Mtb H37Rv mCherry 10 strain. Put plainly: MIC 90 against Mtb H37Rv mCherry 10 strain. The series is classed as cell-based. The conditions noted are these: Mycobacterium tuberculosis, read-out: MIC 90 (growth inhibition) of Mtb H37Rv mCherry 10 strain.
The next series concerns malaria. Set-up: method as in Fernandes et al. [6]−[8]. The conditions noted are these: children, combination therapy, meta-analysis ref Fernandes et al. [6]−[8]; cited from earlier work.
Substrate in series [5]: C[C@](O)(CO)[C@H](O)COP(=O)(O)O
Put plainly: Determination of enzyme kinetics, LC-MS based IspD assay. The class given is biochemical, Plasmodium falciparum. The conditions noted are these: other: our results, n = 2, mean ± SD; pH 7.6. As to the method:
as §1

≈ marks a conversion by molar mass, not a printed value. Where two headings read alike, the source gives them in different places.

EcIspE, sequence (P62615 whole entry): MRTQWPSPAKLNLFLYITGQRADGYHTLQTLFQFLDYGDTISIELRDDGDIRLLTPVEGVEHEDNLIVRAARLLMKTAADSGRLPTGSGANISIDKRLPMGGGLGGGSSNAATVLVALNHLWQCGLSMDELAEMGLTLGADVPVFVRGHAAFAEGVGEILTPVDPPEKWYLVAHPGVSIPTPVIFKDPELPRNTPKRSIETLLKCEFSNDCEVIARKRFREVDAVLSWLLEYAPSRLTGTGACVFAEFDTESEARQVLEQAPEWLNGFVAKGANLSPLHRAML

As for “1-(4-Methyl-3-(morpholinosulfonyl)phenyl)-3-(4-nitrophenyl)urea [Compound 33]”, at PfIspD [1], the IC50 – broadly, the midpoint of a concentration-inhibition curve – is above 10000 nM. With `Nc1ccn([C@@H]2O[C@H](COP(=O)(O)OP(=O)(O)OP(=O)(O)O)[C@@H](O)[C@H]2O)c(=O)n1` [CTP, cytidine triphosphate], the Km (commonly the substrate concentration at which the rate is half of its maximum) was 9 ± 3 µM in the series on IspD (ref Ghavami et al.[18], read-out: Km^CTP); 59 ± 4 µM with IspD (ref Imlay et al.[12], read-out: Km^CTP); 58 ± 9 µM at PfIspD [2]. Regarding `Nc1ccc(NC(=O)Nc2cccc(S(=O)(=O)N3CCCC3)c2)cc1` [Compound 4, 1-(4-Aminophenyl)-3-(3-(pyrrolidin-1-ylsulfonyl)phenyl)urea], in the series with PfNF54, the “PfNF54 (IC50 μM)” value was “lacking whole-cell activity”. For the molecule `O=C(Nc1ccc(Cl)cc1)Nc1cccc(S(=O)(=O)N2CCCC2)c1` [Compound 5, 1-(4-Chlorophenyl)-3-(3-(pyrrolidin-1-ylsulfonyl)phenyl)urea], the inhibition (commonly the relative decrease from the control value, in per cent) at 100 µM with E. coli K12 was 45 ± 6%.

With `COC(=O)c1ccc(NC(=O)Nc2cccc(S(=O)(=O)N3CCCC3)c2)cc1` [Compound 7, Methyl 4-(3-(3-(Pyrrolidin-1-ylsulfonyl)phenyl)ureido)benzoate], the IC50 against EcIspE was above 500 µM; against PK-LDH, 242 ± 72 µM.

In the series on E. coli K12, `O=C(Nc1ccc([N+](=O)[O-])cc1)Nc1cccc(S(=O)(=O)N2CCCC2)c1` [Compound 8, 1-(4-Nitrophenyl)-3-(3-(pyrrolidin-1-ylsulfonyl)phenyl)urea] came in with an inhibition at 100 µM of 14 ± 5%.

As for `CS(=O)(=O)c1ccc(NC(=O)Nc2cccc(S(=O)(=O)N3CCCC3)c2)cc1` [Compound 9, 1-(4-(Methylsulfonyl)phenyl)-3-(3-(pyrrolidin-1-ylsulfonyl)phenyl)urea], the IC50 against EcIspE and on PK-LDH was above 500 µM in each case. Molecule `N#Cc1ccc(NC(=O)Nc2cccc(S(=O)(=O)N3CCCC3)c2)cc1` [Compound 10, 1-(4-Cyanophenyl)-3-(3-(pyrrolidin-1-ylsulfonyl)phenyl)urea] returned an inhibition at 100 µM with E. coli K12 of 46 ± 4%. Also, the “effect of IDP supplementation on sensitivity” value in series [3] is “equalized the sensitivity of the resistant strains and the wild type”. In [4], the MIC90 worked out at 64 µM (≈ 23.7 µg/mL). Regarding `O=C(Nc1ccc(C(F)(F)F)cc1)Nc1cccc(S(=O)(=O)N2CCCC2)c1` [Compound 11, 1-(3-(Pyrrolidin-1-ylsulfonyl)phenyl)-3-(4-(trifluoromethyl)phenyl)urea], the IC50 is 73 ± 15 µM on EcIspE (auxiliary enzyme, read-out: EcIspE (IC50 µM)) and 73 ± 15 µM on PK-LDH. With `O=C(Nc1ccc([N+](=O)[O-])cc1)Nc1cccc(S(=O)(=O)N2CCCCC2)c1` [Compound 26, 1-(4-Nitrophenyl)-3-(3-(piperidin-1-ylsulfonyl)phenyl)urea], the IC50 on EcIspE is 49 ± 7 µM; against PK-LDH it was above 500 µM. The like results for `O=C(Nc1ccc([N+](=O)[O-])cc1)Nc1cccc(S(=O)(=O)N2CCOCC2)c1` [Compound 27, 1-(3-(Morpholinosulfonyl)phenyl)-3-(4-nitrophenyl)urea] were, in that order, above 500 µM and 104 ± 19 µM. The like results for `O=C(Nc1ccc([N+](=O)[O-])cc1)Nc1ccc(F)c(S(=O)(=O)N2CCOCC2)c1` [Compound 31, 1-(4-Fluoro-3-(morpholinosulfonyl)phenyl)-3-(4-nitrophenyl)urea] were, in that order, 75 ± 11 µM and above 500 µM. Regarding `C[C@](O)(CO)[C@H](O)COP(=O)(O)O` [MEP, 2-C-methylerythritol-D-erythritol-4-phosphate], the Km was 12 ± 3 µM in the series on IspD (ref Ghavami et al.[18], read-out: Km^MEP) and 61 µM in the series with IspD (ref Wu et al.[14], read-out: Km^MEP). With `O=CN(O)CCCP(=O)(O)O` [fosmidomycin], the cure rate in the series on malaria is 85%.

B1: PfIspD (Plasmodium falciparum 3D7) (protein)
chain: T1 sequence (Q8I273 1-734)
For B1, in series [5], the Km is 46 ± 3 µM.

The values above are taken from article PMC11472328, “Targeting Plasmodium falciparum IspD in the Methyl-D-erythritol Phosphate Pathway: Urea-Based Compounds with Nanomolar Potency on Target and Low-Micromolar Whole-Cell Activity” (Journal of Medicinal Chemistry, 2024).
